According to patent US9623077B2, “Use of peptide for alleviating pain” (Academia Sinica, priority 2015, dated 2017):
Where no end group is shown, it is not given here.

Key:
CCI rats [1] = type: in vivo, rat; conditions: i.t. administration, from peak effects of % MPE
Method: Implantation of i.t. catheters in rats was performed.
Thermal hyperalgesia was examined using an IITC analgesiometer (IITC Inc., Woodland Hills, Calif., USA). […] Paw withdrawal latency (PWL) in seconds was measured with a cutoff time of 30 seconds. PWL was recorded at 30, 60, 90, 120, 150, and 180 minutes after PCD-1 or gabapentin injection. PWL (s) was transformed to a percentage of the maximum possible effect (% MPE) using the following formula: % MPE=(post-drug latency−baseline)/(cutoff−baseline)×100%, where the post-drug latency was the response measured at 0, 30, 60, 90, 120, 150, or 180 minutes after injection of PCD-1, gabapentin, or vehicle. The baseline was the response measured immediately prior to i.t. injection, and the cutoff time was 30 seconds.

CCI rats [2] = test system: CCI rats
Method: The rat model of chronic constriction injury (CCI) was performed by following the previous reports or research. Implantation of i.t. catheters in rats was performed. The i.t. catheters (PE5 tubes: 9-cm long, 0.008-inch inner diameter, 0.014-inch outer diameter; Spectranetics, Colorado Springs, Colo., USA) were inserted via the atlanto-occipital membrane into the i.t. space at the level of the lumbar enlargement of the spinal cord, and externalized and fixed to the cranial aspect of the head. Five days after i.t. catheterization, CCI or mononeuropathy was induced by following a previous report. The 5-mm-long nerve segment of right sciatic nerve at the mid-thigh level was isolated from the surrounding tissues. Four ligatures (4-0 chromic gut) were loosely tied around the sciatic nerve with 1-mm intervals, and the wound was closed with sutures.
The narrow beam used in the present invention was a wooden beam 80 cm in length and 2.5 cm in width, suspended 100 cm from the ground by wooden supports at either end. Foam padding (1 m wide and approximately 12 cm thick) was placed beneath the beam to prevent injury to the rat in case of a fall. The cutoff time to cross the beam was 15 seconds for each rat. Rats were pre-trained before the test.

rats = rats treated with PCD-1
RAW264.7 cells = test system: RAW264.7 cells; parameters: dose or concentration left out as unconfirmed; conditions: PCD-1 for 24 h
Method: (A) RAW264.7 cells are treated with the indicated doses of PCD-1 for 24 h, and cell viability is then measured by Alamar blue assay to assess cytotoxicity.
In order to investigate regulation of iNOS and COX-2 by PCD-1, mouse macrophage and immune cells were treated with non-cytotoxic doses of PCD-1, and the effects on protein expression were examined.

Row | Molecule | median effective dose (ED50) for anti-thermal hyperalgesia (CCI rats [1]) [µg] | latency to initiate crossing and total time to cross the beam (CCI rats [2]; CCI rats+PCD-1 (20 μg) vs CCI rats+vehicle, 0 to 480 minutes) | locomotor function (CCI rats [2]; rats, i.t. 20 μg) | alterations of external behavior (rats) | Proliferation of RAW264.7 cells (cell viability, Alamar blue) (RAW264.7 cells)
1 | FFHHIFRGIVHVGKTIHRLVTG [PCD-1, Piscidin-1] [listing 1 of 2 here] | 9.5 ± 3.2 |  |  |  | 
2 | FFHHIFRGIVHVGKTIHRLVTG [PCD-1, Piscidin-1] [listing 2 of 2 here] |  | No significant differences | did not affect | nor did it result in any obvious alterations | unaffected
3 | NCC1(CC(=O)O)CCCCC1 [gabapentin, reference compound] | 2.3 ± 1.5 |  |  |  | 
